Assay results as given in article PMC8913300, “Two distinct classes of cochaperones compete for the EEVD motif in heat shock protein 70 to tune its chaperone activities” (The Journal of Biological Chemistry, 2022).

Experiments:
Hsp72–DnaJB4 complex [1] = assay: CHIP inhibition of DnaJB4-stimulated Hsp72 ATPase activity; type: biochemical; conditions: 25 μM CHIP, 40-fold excess relative to DnaJB4 (625 nM)
Method: ATPase assays were carried out using the malachite green assay as described ([14], [83]). In brief, 1 μM Hsp72 and various concentrations of DnaJB4 were added to clear 96-well plates, and the reactions were initiated by addition of 2.5 mM ATP. Reactions were allowed to proceed for 1 h at 37 °C, after which they were developed using malachite green reagent and quenched with sodium citrate. Plate absorbance was measured at 620 nm, and a standard curve of sodium phosphate was used to convert the absorbance values to pmol ATP/μM Hsp72/min. Vmax and Km, app were derived as fit parameters to a modified Michaelis–Menten model (ATPase rate=Vmax∗[DnaJB4]/(Km, app+[DnaJB4])) where Vmax reflects the maximal increased ATP hydrolysis conferred by DnaJB4 binding and Km,app represents the half-maximal concentration of DnaJB4 binding to and stimulating the ATPase activity of Hsp72.

Hsp72–DnaJB4 complex [2] = assay: Luciferase refolding by Hsp72/DnaJB4 in the presence of TPR cochaperones; type: biochemical; conditions: 1 μM Hsp72, 100 nM denatured luciferase, 120 nM DnaJB4; CHIP titration or 10 μM TPR protein; 1 h at 37 °C
Method: Experiments were performed as described ([14]). Briefly, Renilla luciferase (Promega) was denatured in 8 M GdnHCl for 2 h at room temperature. Hsp72 (1 μM) and denatured luciferase (100 nM) were diluted into a working concentration in buffer containing an ATP regenerating system (23 mM Hepes, 120 mM KAc, 1.2 mM MgAc, 15 mM DTT, 61 mM creatine phosphate, 35 units/ml creatine kinase, and 5 ng/μl bovine serum albumin, pH 7.4). A titration series of DnaJB4 was added, and the reaction was initiated with the addition of 2.5 mM ATP. For competition assays with DnaJB4, complexes of Hsp72 (1 μM), denatured luciferase (100 nM), and DnaJB4 (120 nM) were incubated with either a titration of CHIP or 10 μM of indicated TPR protein. In all cases, the assay was allowed to incubate for 1 h at 37 °C in white, 96-well flat-bottom plates (Corning 3990). Luminescence was measured using the SteadyGlo luminescence reagent (Promega), and percent refolded luciferase was calculated using a standard curve of 100 to 0 nM native luciferase.

DnaJB4 = molecular target: T1, DnaJB4 (Homo sapiens, UniProt Q9UDY4); assay: Fluorescence polarization saturation binding of Hsp72 tracer to DnaJB4; conditions: Fig. 8A right; FP saturation binding, 20 nM tracer, JDP binding buffer pH 8.0, 30 min room temperature; mean with 95% confidence interval, four replicates
T1 construct: 6-His with TEV-cleavable linker (N, cleaved yes); made in house; host or cells: Escherichia coli BL21 (DE3) Rosetta
T1 sequence (Q9UDY4 whole entry): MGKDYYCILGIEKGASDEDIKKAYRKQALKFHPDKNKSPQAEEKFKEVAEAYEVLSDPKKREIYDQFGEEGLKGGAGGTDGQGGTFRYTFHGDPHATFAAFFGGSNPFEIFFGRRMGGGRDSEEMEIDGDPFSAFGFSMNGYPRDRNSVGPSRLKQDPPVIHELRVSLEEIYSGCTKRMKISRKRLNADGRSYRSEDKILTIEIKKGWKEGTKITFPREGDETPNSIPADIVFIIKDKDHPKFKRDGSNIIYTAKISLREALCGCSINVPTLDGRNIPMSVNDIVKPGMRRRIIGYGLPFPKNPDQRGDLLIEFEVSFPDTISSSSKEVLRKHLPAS
Method: (§1) All FP experiments were performed in 384-well, black, low-volume, round-bottom plates at a final assay volume of 18 μl (Corning 4511). Polarization values in millipolarization units (mP) were measured at an excitation wavelength of 485 nm and an emission wavelength of 525 nm, with 100 flashes per read using a Spectramax M5 plate reader (Molecular Devices). All experiments were performed 2 times in quadruplicate. Experimental data were analyzed using GraphPad Prism 9. Saturation binding data were background subtracted, and curves were fit using the model [Agonist] versus response (three parameters). For competition experiments, data were background subtracted to tracer alone and normalized to DMSO control to determine relative tracer displacement.
(§2) A sample of 20 nM Hsp72 tracers (FITC-Ahx-GSGPTIEEVD or FITC-Ahx-GSGPEIEEVD) was incubated with various concentrations of DnaJB4 (WT or QPD mutant) or CHIP in 2× dilutions (final [protein] = 110–0.013 μM) in binding buffer (JDP binding buffer = 50 mM Tris, 15 mM NaCl, 1 mM DTT, 0.01% Triton X-100, pH 8.0; CHIP binding buffer = 25 mM Hepes, 50 mM KCl, 0.01% Triton X-100, pH 7.4). The plate was covered from light and allowed to incubate at room temperature for 30 min prior to reading.

DnaJB4 QPD mutant = molecular target: T2, DnaJB4 QPD mutant (Homo sapiens, UniProt Q9UDY4, H32Q); assay: Fluorescence polarization saturation binding of Hsp72 tracer to DnaJB4 QPD mutant; conditions: Fig. 2D, FP saturation binding, 20 nM tracer, 30 min room temperature, mean with 95% confidence interval, four replicates
T2 construct: 6-His with TEV-cleavable linker (N, cleaved yes); made in house; host or cells: Escherichia coli BL21 (DE3) Rosetta
T2 sequence (Q9UDY4 whole entry H32Q): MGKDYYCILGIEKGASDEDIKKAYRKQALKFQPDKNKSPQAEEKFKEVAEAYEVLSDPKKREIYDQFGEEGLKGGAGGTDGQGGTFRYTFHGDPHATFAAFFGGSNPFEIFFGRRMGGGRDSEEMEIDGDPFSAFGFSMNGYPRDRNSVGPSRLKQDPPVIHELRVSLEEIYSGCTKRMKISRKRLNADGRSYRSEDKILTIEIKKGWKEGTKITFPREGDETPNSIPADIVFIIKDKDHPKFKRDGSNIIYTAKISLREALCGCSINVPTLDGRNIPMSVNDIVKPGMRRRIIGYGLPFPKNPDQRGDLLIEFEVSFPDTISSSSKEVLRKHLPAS
Method: as §1, §2

| Molecule | inhibition of DnaJB4-stimulated ATPase activity (Hsp72–DnaJB4 complex [1]) | effect on client (luciferase) refolding by Hsp72–DnaJB4 (Hsp72–DnaJB4 complex [2]) | Kd (DnaJB4) [nM] | Kd (DnaJB4 QPD mutant) [nM] |
| --- | --- | --- | --- | --- |
| CHIP: C terminus of Hsc70 interacting protein, E3 ubiquitin ligase, TPR cochaperone, recombinant human | significant inhibition | potent inhibitor |  |  |
| CC[C@H](C)[C@H](NC(=O)[C@@H](NC(=O)[C@@H]1CCCN1C(=O)CNC(=O)[C@H](CO)NC(=O)CNC(=O)CCCCCNC(=S)Nc1ccc2c(c1)C(=O)OC21c2ccc(O)cc2Oc2cc(O)ccc21)[C@@H](C)O)C(=O)N[C@@H](CCC(=O)O)C(=O)N[C@@H](CCC(=O)O)C(=O)N[C@H](C(=O)N[C@@H](CC(=O)O)C(=O)O)C(C)C [Hsp72 tracer] |  |  | 1970 ± 280 | 2440 ± 280 |
